Experimental data as given in ChEMBL document CHEMBL3046629, “Fungicidal Activities of 2-Methoxy-2-[2-(benzylideneaminooxymethyl)phenyl]-N-methylacetamide Derivatives” (2002).
Calls of active or inactive are those of the source. The calls are words filed in the database; no cut-off is given here.

Assays:
[1] = tested on: Pseudoperonospora cubensis; experiment: Fungicidal activity against Pseudoperonospora cubensis assessed as cucumber downy mildew disease control at 500 ppm foliar application 24 hr before inoculation onto the abaxial(treated) surface of leaf by preventive manner; assay type: functional
[2] = tested on: Pseudoperonospora cubensis; experiment: Fungicidal activity against Pseudoperonospora cubensis assessed as cucumber downy mildew disease control at 500 ppm foliar application 24 hr before inoculation onto the adaxial(treated) surface of leaf by preventive manner; assay type: functional
Botrytis cinerea [3] = experiment: Fungicidal activity against Botryotinia fuckeliana assessed as cucumber gray mold disease control at 125 ppm treated on upper surface of leaf 24 hr before inoculation at 22 +/- 2 degC measured after 3 days by preventive manner; assay type: functional
Podosphaera fuliginea [4] = experiment: Fungicidal activity against Podosphaera fuliginea assessed as cucumber powdery mildew disease control at 500 ppm treated on upper surface of leaf 24 hr before inoculation at 23 +/- 2 degC measured after 10 days by preventive manner; assay type: functional
[5] = tested on: Pseudoperonospora cubensis; experiment: Fungicidal activity against Pseudoperonospora cubensis assessed as cucumber downy mildew disease control at 31.3 ppm foliar application 24 hr before inoculation onto the abaxial(treated) surface of leaf by preventive manner; assay type: functional
[6] = tested on: Pseudoperonospora cubensis; experiment: Fungicidal activity against Pseudoperonospora cubensis assessed as cucumber downy mildew disease control at 7.8 ppm foliar application 24 hr before inoculation onto the adaxial(treated) surface of leaf by preventive manner; assay type: functional
Podosphaera fuliginea [7] = experiment: Fungicidal activity against Podosphaera fuliginea assessed as cucumber powdery mildew disease control at 7.8 ppm treated on upper surface of leaf 24 hr before inoculation at 23 +/- 2 degC measured after 10 days by preventive manner; assay type: functional
[8] = tested on: Pseudoperonospora cubensis; experiment: Fungicidal activity against Pseudoperonospora cubensis assessed as cucumber downy mildew disease control at 125 ppm foliar application 24 hr before inoculation onto the abaxial(treated) surface of leaf by preventive manner; assay type: functional
Phytophthora infestans = experiment: Fungicidal activity against Phytophthora infestans assessed as potato late blight disease suppression in field at 100 ppm following 4 applications at 1 week intervals; assay type: functional, organism-based
[9] = tested on: Pseudoperonospora cubensis; experiment: Fungicidal activity against Pseudoperonospora cubensis assessed as cucumber downy mildew disease control in field at 100 ppm measured after 9 days of last application; assay type: functional
[10] = tested on: Pseudoperonospora cubensis; experiment: Fungicidal activity against Pseudoperonospora cubensis assessed as cucumber downy mildew disease control in field at 25 ppm measured after 9 days of last application; assay type: functional
[11] = tested on: Pseudoperonospora cubensis; experiment: Fungicidal activity against Pseudoperonospora cubensis assessed as cucumber downy mildew disease control at 2 ppm foliar application 24 hr after inoculation by curative manner; assay type: functional
[12] = tested on: Pseudoperonospora cubensis; experiment: Fungicidal activity against Pseudoperonospora cubensis assessed as cucumber downy mildew disease control at 7.8 ppm foliar application 24 hr after inoculation by curative manner; assay type: functional
[13] = tested on: Pseudoperonospora cubensis; experiment: Fungicidal activity against Pseudoperonospora cubensis assessed as cucumber downy mildew disease control at 31.3 ppm foliar application 24 hr after inoculation by curative manner; assay type: functional
[14] = tested on: Pseudoperonospora cubensis; experiment: Fungicidal activity against Pseudoperonospora cubensis assessed as cucumber downy mildew disease control at 125 ppm foliar application 24 hr after inoculation by curative manner; assay type: functional
[15] = tested on: Pseudoperonospora cubensis; experiment: Fungicidal activity against Pseudoperonospora cubensis assessed as cucumber downy mildew disease control at 2 ppm foliar application 24 hr before inoculation onto the abaxial(treated) surface of leaf by preventive manner; assay type: functional
[16] = tested on: Pseudoperonospora cubensis; experiment: Fungicidal activity against Pseudoperonospora cubensis assessed as cucumber downy mildew disease control at 7.8 ppm foliar application 24 hr before inoculation onto the abaxial(treated) surface of leaf by preventive manner; assay type: functional
[17] = tested on: Pseudoperonospora cubensis; experiment: Fungicidal activity against Pseudoperonospora cubensis assessed as cucumber downy mildew disease control at 2 ppm foliar application 24 hr before inoculation onto the adaxial(treated) surface of leaf by preventive manner; assay type: functional
[18] = tested on: Pseudoperonospora cubensis; experiment: Fungicidal activity against Pseudoperonospora cubensis assessed as cucumber downy mildew disease control at 125 ppm foliar application 24 hr before inoculation onto the adaxial(treated) surface of leaf by preventive manner; assay type: functional
[19] = tested on: Pseudoperonospora cubensis; experiment: Fungicidal activity against Pseudoperonospora cubensis assessed as cucumber downy mildew disease control at 31.3 ppm foliar application 24 hr before inoculation onto the adaxial(treated) surface of leaf by preventive manner; assay type: functional
Botrytis cinerea [20] = experiment: Fungicidal activity against Botryotinia fuckeliana assessed as cucumber gray mold disease control at 31.3 ppm treated on upper surface of leaf 24 hr before inoculation at 22 +/- 2 degC measured after 3 days by preventive manner; assay type: functional
Podosphaera fuliginea [21] = experiment: Fungicidal activity against Podosphaera fuliginea assessed as cucumber powdery mildew disease control at 31.3 ppm treated on upper surface of leaf 24 hr before inoculation at 23 +/- 2 degC measured after 10 days by preventive manner; assay type: functional
Botrytis cinerea [22] = experiment: Fungicidal activity against Botryotinia fuckeliana assessed as cucumber gray mold disease control at 7.8 ppm treated on upper surface of leaf 24 hr before inoculation at 22 +/- 2 degC measured after 3 days by preventive manner; assay type: functional
Botrytis cinerea [23] = experiment: Fungicidal activity against Botryotinia fuckeliana assessed as cucumber gray mold disease control at 500 ppm treated on upper surface of leaf 24 hr before inoculation at 22 +/- 2 degC measured after 3 days by preventive manner; assay type: functional
Podosphaera fuliginea [24] = experiment: Fungicidal activity against Podosphaera fuliginea assessed as cucumber powdery mildew disease control at 125 ppm treated on upper surface of leaf 24 hr before inoculation at 23 +/- 2 degC measured after 10 days by preventive manner; assay type: functional
[25] = tested on: Pseudoperonospora cubensis; experiment: Fungicidal activity against Pseudoperonospora cubensis assessed as cucumber downy mildew disease control in field at 400 ppm measured after 9 days of last application; assay type: functional

CNC(=O)C(OC)c1ccccc1CO/N=C(\C)c1ccc([N+](=O)[O-])cc1 (racemic)
Activity [1]: <90%
Activity [2]: 90%
Activity (Botrytis cinerea [3]): 50%
Activity (Podosphaera fuliginea [4]): 90%

CCC/C(=N\OCc1ccccc1C(OC)C(=O)NC)c1ccc(Cl)cc1 (racemic)
Activity [5]: 90%
Activity [6]: 90%
Activity (Botrytis cinerea [3]): 50%
Activity (Podosphaera fuliginea [7]): 90%

CNC(=O)C(OC)c1ccccc1CO/N=C(/SC)c1ccc(C(F)(F)F)cc1 (racemic)
Activity [1]: 100%
Activity [8]: 97%
inhibition (Phytophthora infestans): Active
Activity [9]: 96.1%
Activity [10]: 62.3%
Activity [11]: 50%
Activity [12]: 79%
Activity [13]: 95%
Activity [14]: 95%
Activity [15]: 25%
Activity [5]: 99%
Activity [16]: 192%
Activity [17]: 100%
Activity [2]: 100%
Activity [18]: 100%
Activity [19]: 100%
Activity [6]: 100%
Activity (Botrytis cinerea [3]): 50%
Activity (Podosphaera fuliginea [7]): 90%

CNC(=O)C(OC)c1ccccc1CO/N=C(/SC)c1ccc(OC)cc1 (racemic)
Activity [1]: 90%
Activity [8]: 64%
Activity [11]: 25%
Activity [12]: 25%
Activity [13]: 65%
Activity [14]: 95%
Activity [15]: 25%
Activity [5]: 40%
Activity [16]: 25%
Activity [17]: 90%
Activity [2]: 96%
Activity [18]: 100%
Activity [19]: 100%
Activity [6]: 99%
Activity (Botrytis cinerea [3]): 50%
Activity (Podosphaera fuliginea [4]): <90%

CNC(=O)C(OC)c1ccccc1CO/N=C(/SC)c1ccc(OC(F)F)cc1 (racemic)
Activity [1]: 100%
Activity [8]: 100%
Activity [9]: 81.6%
Activity [10]: 71.4%
Activity [11]: 30%
Activity [12]: 40%
Activity [13]: 65%
Activity [14]: 78%
Activity [15]: 60%
Activity [5]: 80%
Activity [16]: 80%
Activity [17]: 100%
Activity [2]: 100%
Activity [18]: 100%
Activity [19]: 100%
Activity [6]: 100%
Activity (Botrytis cinerea [20]): 50%
Activity (Podosphaera fuliginea [21]): 90%

CNC(=O)C(OC)c1ccccc1CO/N=C(\C)c1ccc(OC(F)F)cc1 (racemic)
Activity [1]: 97%
Activity [8]: 95%
Activity [9]: 52.6%
Activity [11]: 25%
Activity [12]: 70%
Activity [13]: 75%
Activity [14]: 75%
Activity [15]: 30%
Activity [5]: 90%
Activity [16]: 65%
Activity [17]: 97%
Activity [2]: 97%
Activity [18]: 97%
Activity [19]: 97%
Activity [6]: 97%
Activity (Botrytis cinerea [22]): 50%
Activity (Podosphaera fuliginea [7]): 90%

CNC(=O)C(OC)c1ccccc1CO/N=C(\C)c1ccc(OC)cc1 (racemic)
Activity [1]: 90%
Activity [8]: 50%
Activity [11]: 0%
Activity [12]: 0%
Activity [13]: 20%
Activity [14]: 75%
Activity [15]: 0%
Activity [5]: 0%
Activity [16]: 0%
Activity [17]: 0%
Activity [2]: 100%
Activity [18]: 100%
Activity [19]: 100%
Activity [6]: 0%
Activity (Botrytis cinerea [22]): 50%
Activity (Podosphaera fuliginea [21]): 90%

CNC(=O)C(OC)c1ccccc1COc1ccccc1 (racemic)
Activity [1]: <90%
Activity [2]: <90%
Activity (Botrytis cinerea [23]): <50%
Activity (Podosphaera fuliginea [24]): 90%

N#Cc1c(Cl)c(Cl)c(Cl)c(C#N)c1Cl [CHLOROTHALONIL]
Activity [25]: 55.3%
